This passage reports IC50 results from patent US20240025884A1 (Dong-A ST Co., Ltd., priority 2022, published 2024).

For the test, the target named is GCN2 (Homo sapiens (Human), UniProt Q9P2K8). As to the kind of experiment: GCN2 Biochemical Assay (TR-FRET, GFP-eIF2S1 substrate phosphorylation). The conditions noted are these: read-out: IC50 (GCN2 Inhibitory Activity). A digest of the protocol: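 TR-FRET readout (Ex 340, Em 490/520 nm) after 2–3 h with Tb-labelled phospho-eIF2S1 antibody in stop mix, following a 70 min room-temperature kinase step. Reaction: in-house GCN2, GFP-eIF2S1, ATP, tRNA in Tris pH 7.5 (2× stocks 1.6 nM, 50 nM, 0.2 mM); compounds tested at 10 concentrations, with a phospho-substrate artifact counter-plate.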
Chain of GCN2 (Q9P2K8 whole entry): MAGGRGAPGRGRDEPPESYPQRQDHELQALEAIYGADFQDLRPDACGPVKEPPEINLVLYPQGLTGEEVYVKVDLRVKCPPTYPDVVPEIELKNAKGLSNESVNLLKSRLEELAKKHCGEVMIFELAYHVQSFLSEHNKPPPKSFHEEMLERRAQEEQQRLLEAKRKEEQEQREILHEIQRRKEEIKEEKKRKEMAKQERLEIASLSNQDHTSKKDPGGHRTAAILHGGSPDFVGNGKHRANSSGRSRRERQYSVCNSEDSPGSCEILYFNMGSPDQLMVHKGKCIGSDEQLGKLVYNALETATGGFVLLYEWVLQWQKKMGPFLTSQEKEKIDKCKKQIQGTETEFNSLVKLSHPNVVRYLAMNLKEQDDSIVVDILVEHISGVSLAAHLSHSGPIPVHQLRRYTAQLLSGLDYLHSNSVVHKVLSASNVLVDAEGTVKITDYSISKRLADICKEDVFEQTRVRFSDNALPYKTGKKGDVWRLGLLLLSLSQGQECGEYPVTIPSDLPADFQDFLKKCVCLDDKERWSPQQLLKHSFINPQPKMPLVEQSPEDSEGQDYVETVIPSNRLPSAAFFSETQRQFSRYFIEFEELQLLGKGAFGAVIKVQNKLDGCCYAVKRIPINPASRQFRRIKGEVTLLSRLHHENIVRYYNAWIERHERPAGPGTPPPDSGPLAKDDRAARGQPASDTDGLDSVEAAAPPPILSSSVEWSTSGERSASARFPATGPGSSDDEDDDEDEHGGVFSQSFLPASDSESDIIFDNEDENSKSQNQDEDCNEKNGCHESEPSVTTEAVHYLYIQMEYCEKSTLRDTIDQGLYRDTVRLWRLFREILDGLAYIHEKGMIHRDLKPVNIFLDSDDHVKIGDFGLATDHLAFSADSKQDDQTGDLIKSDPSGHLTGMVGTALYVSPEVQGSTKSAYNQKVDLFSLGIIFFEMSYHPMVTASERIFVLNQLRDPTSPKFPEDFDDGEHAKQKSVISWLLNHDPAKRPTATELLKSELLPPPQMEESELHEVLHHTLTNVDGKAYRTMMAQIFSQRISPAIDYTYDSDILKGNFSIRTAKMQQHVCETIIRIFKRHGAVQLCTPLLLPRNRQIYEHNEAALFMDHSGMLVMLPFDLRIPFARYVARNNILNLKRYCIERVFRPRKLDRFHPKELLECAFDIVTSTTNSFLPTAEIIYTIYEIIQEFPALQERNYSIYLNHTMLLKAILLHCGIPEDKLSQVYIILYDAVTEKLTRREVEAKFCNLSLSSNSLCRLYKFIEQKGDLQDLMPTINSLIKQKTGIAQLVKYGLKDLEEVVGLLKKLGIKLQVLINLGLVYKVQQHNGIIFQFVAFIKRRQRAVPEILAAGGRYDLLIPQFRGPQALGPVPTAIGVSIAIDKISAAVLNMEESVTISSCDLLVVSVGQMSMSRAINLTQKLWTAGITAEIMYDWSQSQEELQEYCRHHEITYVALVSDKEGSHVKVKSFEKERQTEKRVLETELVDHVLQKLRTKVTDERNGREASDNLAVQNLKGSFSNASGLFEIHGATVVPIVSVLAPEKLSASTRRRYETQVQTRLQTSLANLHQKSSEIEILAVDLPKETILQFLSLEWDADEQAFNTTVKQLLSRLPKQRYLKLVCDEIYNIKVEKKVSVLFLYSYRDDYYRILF
In the case of `Cc1cnc(Nc2cc(C)n(C)n2)nc1-c1c[nH]c2c(NC(=O)CN3CC[C@H](Oc4ncc(F)c(N5CCSCC5)n4)C3)cccc12` [Example 189, (S)-N-(3-(2-((1,5-dimethyl-1H-pyrazol-3-yl)amino)-5-methylpyrimidin-4-yl)-1H-indol-7-yl)-2-(3-((5-fluoro-4-thiomorpholinopyrimidin-2-yl)oxy)pyrrolidin-1-yl)acetamide], the half-inhibitory concentration (IC50) was under 10 nM.
In the case of `Cc1cnc(Nc2cc(C)n(C)n2)nc1-c1c[nH]c2c(NC(=O)CN3C[C@@H](Oc4ccnc(NC5CC5)n4)C[C@H]3C(=O)O)cccc12` [Example 56, (2S,4S)-4-((2-(cyclopropylamino)pyrimidin-4-yl)oxy)-1-(2-((3-(2-((1,5-dimethyl-1H-pyrazol-3-yl)amino)-5-methylpyrimidin-4-yl)-1H-indol-7-yl)amino)-2-oxoethyl)pyrrolidine-2-carboxylic acid] it was 10 to 100 nM; in that of `Cc1cnc(Nc2cc(C)n(C)n2)nc1-c1c[nH]c2c(NC(=O)CN3CC[C@H](Oc4ncc(F)c(N(C)C)n4)C3)cccc12` [Example 181, (S)-N-(3-(2-((1,5-dimethyl-1H-pyrazol-3-yl)amino)-5-methylpyrimidin-4-yl)-1H-indol-7-yl)-2-(3-((4-(dimethylamino)-5-fluoropyrimidin-2-yl)oxy)pyrrolidin-1-yl)acetamide], under 10 nM; in that of `Cc1cnc(Nc2cc(C)n(C)n2)nc1-c1c[nH]c2c(NC(=O)CN3CCCC(Oc4cc(C(=O)NC5CC5)on4)C3)cccc12` (stereo not drawn) [Example 44, N-cyclopropyl-3-((1-(2-((3-(2-((1,5-dimethyl-1H-pyrazol-3-yl)amino)-5-methylpyrimidin-4-yl)-1H-indol-7-yl)amino)-2-oxoethyl)piperidin-3-yl)oxy)isoxazole-5-carboxamide], 100 to 1000 nM.
On to `Cc1cnc(Nc2cc(C)n(C)n2)nc1-c1c[nH]c2c(NC(=O)CN3CC[C@H](Oc4ccnc(NCC(F)F)n4)C3)cccc12` [Example 200, (S)-2-(3-((2-((2,2-difluoroethyl)amino)pyrimidin-4-yl)oxy)pyrrolidin-1-yl)-N-(3-(2-((1,5-dimethyl-1H-pyrazol-3-yl)amino)-5-methylpyrimidin-4-yl)-1H-indol-7-yl)acetamide], for which the IC50 was under 10 nM.
On to `Cc1cscc1-c1cccc2c1CN(c1cccc3c(-c4nc(Nc5cc(C)n(C)n5)ncc4C)c[nH]c13)C2=O` [Example 453, 2-(3-(2-((1,5-dimethyl-1H-pyrazol-3-yl)amino)-5-methylpyrimidin-4-yl)-1H-indol-7-yl)-4-(4-methylthiophen-3-yl)isoindolin-1-one], for which the half-maximal inhibitory concentration (IC50) lay within 10 to 100 nM.
As to `Cc1cnc(Nc2cc(C)n(C)n2)nc1-c1c[nH]c2c(N3Cc4c(cccc4C4=CCOCC4)C3=O)cccc12` [Example 392, 4-(3,6-dihydro-2H-pyran-4-yl)-2-(3-(2-((1,5-dimethyl-1H-pyrazol-3-yl)amino)-5-methylpyrimidin-4-yl)-1H-indol-7-yl)isoindolin-1-one], the IC50 is under 10 nM.
Regarding `Cc1cnc(Nc2cc(C)n(C)n2)nc1-c1c[nH]c2c(NC(=O)CN3CC[C@H](Oc4cncc(N)n4)C3)cccc12` [Example 92], the half-maximal inhibitory concentration (IC50) is under 10 nM.
Take `Cc1cnc(Nc2cc(C)n(C)n2)nc1-c1c[nH]c2c(NC(=O)CN3CC[C@H](Oc4cncc(C(N)=O)n4)C3)cccc12` [Example 132, (S)-6-((1-(2-((3-(2-((1,5-dimethyl-1H-pyrazol-3-yl)amino)-5-methylpyrimidin-4-yl)-1H-indol-7-yl)amino)-2-oxoethyl)pyrrolidin-3-yl)oxy)pyrazine-2-carboxamide]: the half-inhibitory concentration (IC50) was under 10 nM.
Under `COc1cc(O[C@H]2CCN(CC(=O)Nc3cccc4c(-c5nc(Nc6cc(C)n(C)n6)ncc5C)c[nH]c34)C2)nc(NC2CC2)n1` [Example 238, (S)-2-(3-((2-(cyclopropylamino)-6-methoxypyrimidin-4-yl)oxy)pyrrolidin-1-yl)-N-(3-(2-((1,5-dimethyl-1H-pyrazol-3-yl)amino)-5-methylpyrimidin-4-yl)-1H-indol-7-yl)acetamide] stands under 10 nM; under `COc1cnc(Nc2cc(C)n(C)n2)nc1-c1c[nH]c2c(NC(=O)CN3CC[C@H](Oc4ccnc(NC5CC5)n4)C3)cccc12` [Example 13, (S)-2-(3-((2-(cyclopropylamino)pyrimidin-4-yl)oxy)pyrrolidin-1-yl)-N-(3-(2-((1,5-dimethyl-1H-pyrazol-3-yl)amino)-5-methoxypyrimidin-4-yl)-1H-indol-7-yl)acetamide], under 10 nM; under `Cc1cnc(Nc2cc(C)n(C)n2)nc1-c1c[nH]c2c(NC(=O)CN3CC[C@H](Oc4cc(NCCCN(C)C)ncn4)C3)cccc12` [Example 148, (S)-N-(3-(2-((1,5-dimethyl-1H-pyrazol-3-yl)amino)-5-methylpyrimidin-4-yl)-1H-indol-7-yl)-2-(3-((6-((3-(dimethylamino)propyl)amino)pyrimidin-4-yl)oxy)pyrrolidin-1-yl)acetamide], under 10 nM.
For `Cc1cnc(Nc2cc(C)n(C)n2)nc1-c1c[nH]c2c(N3Cc4c(cccc4-c4ccnc(N(C)C)c4)C3=O)cccc12` [Example 475, 2-(3-(2-((1,5-dimethyl-1H-pyrazol-3-yl)amino)-5-methylpyrimidin-4-yl)-1H-indol-7-yl)-4-(2-(dimethylamino)pyridin-4-yl)isoindolin-1-one], the IC50 is under 10 nM.
`Cc1cnc(Nc2cc(C)n(C)n2)nc1-c1c[nH]c2c(N3Cc4c(NCC5CC5)cccc4C3=O)cccc12` [Example 353, 4-((cyclopropylmethyl)amino)-2-(3-(2-((1,5-dimethyl-1H-pyrazol-3-yl)amino)-5-methylpyrimidin-4-yl)-1H-indol-7-yl)isoindolin-1-one]: the IC50 lay in the range of 10 to 100 nM.
With `Cc1cnc(Nc2cc(C)n(C)n2)nc1-c1c[nH]c2c(N3Cc4c(NC(=O)C5CCCOC5)cccc4C3=O)cccc12` (stereo not drawn) [Example 327, N-(2-(3-(2-((1,5-dimethyl-1H-pyrazol-3-yl)amino)-5-methylpyrimidin-4-yl)-1H-indol-7-yl)-1-oxoisoindolin-4-yl)tetrahydro-2H-pyran-3-carboxamide], the half-maximal inhibitory concentration (IC50) is under 10 nM.
Under `Cc1cnc(Nc2cc(C)n(C)n2)nc1-c1c[nH]c2c(N3Cc4c(cccc4-c4ccnc(N)c4)C3=O)cccc12` [Example 399, 4-(2-aminopyridin-4-yl)-2-(3-(2-((1,5-dimethyl-1H-pyrazol-3-yl)amino)-5-methylpyrimidin-4-yl)-1H-indol-7-yl)isoindolin-1-one] stands under 10 nM; under `Cc1cnc(Nc2cc(C)n(C)n2)nc1-c1c[nH]c2c(N3Cc4c(cccc4-c4ccncc4F)C3=O)cccc12` [Example 400, 2-(3-(2-((1,5-dimethyl-1H-pyrazol-3-yl)amino)-5-methylpyrimidin-4-yl)-1H-indol-7-yl)-4-(3-fluoropyridin-4-yl)isoindolin-1-one], under 10 nM; under `Cc1cnc(Nc2cc(C)n(C)n2)nc1-c1c[nH]c2c(N3Cc4c(-c5ccnc(N(C)C)c5)ccc(F)c4C3=O)cccc12` [Example 483, 2-(3-(2-((1,5-dimethyl-1H-pyrazol-3-yl)amino)-5-methylpyrimidin-4-yl)-1H-indol-7-yl)-4-(2-(dimethylamino)pyridin-4-yl)-7-fluoroisoindolin-1-one], under 10 nM.

Usually IC50 stands for the concentration that gives 50% inhibition.
